Measured values: patent publication US20250388589A1, “TRICYCLIC HETEROCYCLIC DERIVATIVES, COMPOSITIONS AND USES THEREOF” (Danatlas Pharmaceuticals Co., Ltd., priority 2022, published 2025)

Tests used:
[1] = molecular target: hPARG (C-terminal His6-tag) (Homo sapiens (Human), UniProt Q86W56); assay: PARG Enzymatic Activity Assay (HTRF); type: biochemical; conditions: hPARG 65 pM final, biotinylated-NAD ribosylated PARP1 8 nM final
In short: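 E. coli-expressed enzyme (65 pM final) preincubated 60 min RT with compounds (10-point 4-fold dilution, duplicate) in 50 mM Tris pH 7.4, 3 mM EDTA, 1 mM DTT, 50 mM KCl, 0.01% Tween 20. Biotinylated-NAD ribosylated PARP1 substrate (8 nM final) reacted 10 min RT; Eu-streptavidin/anti-6HIS-XL665 HTRF read 665/620 nm after 60 min. IC50 from 4-parameter Hill fit.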

Kuramochi cell line = assay: Cell Viability Assay (Cell Titer-Glo, 7 days); type: cell-based; conditions: 168 h, Kuramochi cells, 7 days incubation, read-out: PARG Cell viability (IC50)
In short: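 Kuramochi cells in RPMI with 10% FBS, seeded at 400 cells/well, were treated with a 9-point 3-fold dilution series in duplicate for 7 days at 37 °C, 5% CO2. Viability by CellTiter-Glo luminescence, normalised to DMSO and medium-only controls; IC50 from 4-parameter Hill fit.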

Sequence of hPARG (C-terminal His6-tag) (Q86W56 whole entry): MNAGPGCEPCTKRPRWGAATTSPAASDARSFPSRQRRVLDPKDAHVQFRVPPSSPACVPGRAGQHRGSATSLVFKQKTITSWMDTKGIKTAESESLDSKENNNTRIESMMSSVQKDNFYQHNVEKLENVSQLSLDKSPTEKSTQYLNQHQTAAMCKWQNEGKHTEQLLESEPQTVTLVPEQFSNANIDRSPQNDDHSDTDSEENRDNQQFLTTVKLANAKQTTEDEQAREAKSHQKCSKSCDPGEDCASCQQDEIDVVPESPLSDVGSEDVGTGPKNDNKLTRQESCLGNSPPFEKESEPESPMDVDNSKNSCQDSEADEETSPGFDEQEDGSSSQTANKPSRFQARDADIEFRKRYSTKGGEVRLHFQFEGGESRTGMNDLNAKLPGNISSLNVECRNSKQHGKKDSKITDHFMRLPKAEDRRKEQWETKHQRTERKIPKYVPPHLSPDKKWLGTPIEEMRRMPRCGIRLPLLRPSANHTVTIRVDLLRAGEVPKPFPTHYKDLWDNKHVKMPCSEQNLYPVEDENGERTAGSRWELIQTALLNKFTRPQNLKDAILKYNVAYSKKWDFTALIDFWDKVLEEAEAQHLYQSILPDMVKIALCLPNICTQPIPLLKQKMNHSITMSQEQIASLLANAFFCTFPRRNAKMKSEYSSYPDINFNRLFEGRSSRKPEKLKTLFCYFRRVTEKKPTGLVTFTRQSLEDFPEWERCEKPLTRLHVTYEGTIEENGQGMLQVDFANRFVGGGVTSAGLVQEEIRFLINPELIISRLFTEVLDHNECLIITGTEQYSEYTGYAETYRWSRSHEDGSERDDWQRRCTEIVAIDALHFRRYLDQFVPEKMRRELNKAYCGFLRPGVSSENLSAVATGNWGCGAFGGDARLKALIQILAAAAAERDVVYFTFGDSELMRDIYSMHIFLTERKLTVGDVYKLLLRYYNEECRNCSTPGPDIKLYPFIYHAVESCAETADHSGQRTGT

SMILES | IC50 [1] | IC50 (Kuramochi cell line)
C[C@H]1CN(c2ncnc3c2c2ccc(S(=O)(=O)NC4(C#N)CC4)cc2n3-c2nnc(C(F)F)s2)CCN1CC(F)(F)F [Example 159, (S)-N-(1-cyanocyclopropyl)-9-(5-(difluoromethyl)-1,3,4-thiadiazol-2-yl)-4-(3-methyl-4-(2,2,2-trifluoroethyl)piperazin-1-yl)-9H-pyrimido[4,5-b]indole-7-sulfonamide] | < 100 nM | 100 to 1000 nM
CC1(NS(=O)(=O)c2ccc3c4c(C5CCN(C(=O)N6CCOCC6)CC5)ncnc4n(-c4nnc(C(F)F)s4)c3c2)CC1 [Example 133, 9-(5-(difluoromethyl)-1,3,4-thiadiazol-2-yl)-N-(1-methylcyclopropyl)-4-(1-(morpholine-4-carbonyl)piperidin-4-yl)-9H-pyrimido[4,5-b]indole-7-sulfonamide] | < 100 nM | < 100 nM
C[C@H]1CN(c2ncnc3c2c2ccc(S(=O)(=O)NC4(C#N)CC4)cc2n3-c2nnc(C(F)F)s2)CCN1C [Example 98, (S)—N-(1-Cyanocyclopropyl)-9-(5-(difluoromethyl)-1,3,4-thiadiazol-2-yl)-4-(3,4-dimethylpiperazin-1-yl)-9H-pyrimido[4,5-b]indole-7-sulfonamide] | < 100 nM | < 100 nM
N#CC1(NS(=O)(=O)c2ccc3c4c(N5CC6CC(C5)O6)ncnc4n(-c4nnc(C(F)F)s4)c3c2)CC1 [Example 176, 4-(6-oxa-3-azabicyclo[3.1.1]heptan-3-yl)-N-(1-cyanocyclopropyl)-9-(5-(difluoromethyl)-1,3,4-thiadiazol-2-yl)-9H-pyrimido[4,5-b]indole-7-sulfonamide] | < 100 nM | < 100 nM
N#CC1(NS(=O)(=O)c2ccc3c4c(C5CCN(C(=O)C6COC6)CC5)ncnc4n(-c4nnc(C(F)F)s4)c3c2)CC1 [Example 113, N-(1-cyanocyclopropyl)-9-(5-(difluoromethyl)-1,3,4-thiadiazol-2-yl)-4-(1-(oxetane-3-carbonyl)piperidin-4-yl)-9H-pyrimido[4,5-b]indole-7-sulfonamide] | < 100 nM | < 100 nM
N#CC1(NS(=O)(=O)c2ccc3c4c(N5CCN(C(=O)C6CCOC6)CC5)ncnc4n(-c4nnc(C(F)F)s4)c3c2)CC1 (stereo not shown) [Example 34, N-(1-Cyanocyclopropyl)-9-(5-(difluoromethyl)-1,3,4-thiadiazol-2-yl)-4-(4-(tetrahydrofuran-3-carbonyl)piperazin-1-yl)-9H-pyrimido[4,5-b]indole-7-sulfonamide] | < 100 nM | < 100 nM
N#CC1(NS(=O)(=O)c2ccc3c4c(C5CCN(C(=O)[C@@H]6CCOC6)CC5)ncnc4n(-c4nnc(C(F)F)s4)c3c2)CC1 [Example 116, (R)-N-(1-cyanocyclopropyl)-9-(5-(difluoromethyl)-1,3,4-thiadiazol-2-yl)-4-(1-(tetrahydrofuran-3-carbonyl)piperidin-4-yl)-9H-pyrimido[4,5-b]indole-7-sulfonamide] | < 100 nM | < 100 nM
N#CC1(NS(=O)(=O)c2ccc3c4c(C5CCC(O)CC5)ncnc4n(-c4nnc(C(F)F)s4)c3c2)CC1 (stereo not shown) [Example 85, N-(1-Cyanocyclopropyl)-9-(5-(difluoromethyl)-1,3,4-thiadiazol-2-yl)-4-(4-hydroxycyclohexyl)-9H-pyrimido[4,5-b]indole-7-sulfonamide] | < 100 nM | < 100 nM
N#CC1(NS(=O)(=O)c2ccc3c4c(N5CCN(C(=O)N6CCOCC6)CC5)ncnc4n(-c4nnc(C(F)F)s4)c3c2)CC1 [Example 8, N-(1-Cyanocyclopropyl)-9-(5-(difluoromethyl)-1,3,4-thiadiazol-2-yl)-4-(4-(morpholine-4-carbonyl)piperazin-1-yl)-9H-pyrimido[4,5-b]indole-7-sulfonamide] | < 100 nM | < 100 nM
CN1CCN(c2ncnc3c2c2ccc(S(=O)(=O)NC4(C#N)CC4)cc2n3-c2nnc(C(F)F)s2)CC1 [Example 56, N-(1-Cyanocyclopropyl)-9-(5-(difluoromethyl)-1,3,4-thiadiazol-2-yl)-4-(4-methylpiperazin-1-yl)-9H-pyrimido[4,5-b]indole-7-sulfonamide] | < 100 nM | < 100 nM
N#CC1(NS(=O)(=O)c2ccc3c4c(N5CCC(N6CCC6)[C@@H](F)C5)ncnc4n(-c4nnc(C(F)F)s4)c3c2)CC1 (stereo partly drawn) [Example 208, 4-((3S)-4-(Azetidin-1-yl)-3-fluoropiperidin-1-yl)-N-(1-cyanocyclopropyl)-9-(5-(difluoromethyl)-1,3,4-thiadiazol-2-yl)-9H-pyrimido[4,5-b]indole-7-sulfonamide] | < 100 nM | < 100 nM
CO[C@H]1CCN(c2ncnc3c2c2ccc(S(=O)(=O)NC4(C#N)CC4)cc2n3-c2nnc(C(F)F)s2)C[C@H]1F [Example 173, N-(1-cyanocyclopropyl)-9-(5-(difluoromethyl)-1,3,4-thiadiazol-2-yl)-4-((3R,4S)-3-fluoro-4-methoxypiperidin-1-yl)-9H-pyrimido[4,5-b]indole-7-sulfonamide] | < 100 nM | < 100 nM
N#CC1(NS(=O)(=O)c2ccc3c4c(N5C6CCC5COC6)ncnc4n(-c4nnc(C(F)F)s4)c3c2)CC1 [Example 210, 4-(3-Oxa-8-azabicyclo[3.2.1]octan-8-yl)-N-(1-cyanocyclopropyl)-9-(5-(difluoromethyl)-1,3,4-thiadiazol-2-yl)-9H-pyrimido[4,5-b]indole-7-sulfonamide] | < 100 nM | < 100 nM
CN1CCC(c2ncnc3c2c2ccc(S(=O)(=O)NC4(C#N)CC4)cc2n3-c2nnc(C(F)F)s2)CC1 [Example 146, N-(1-Cyanocyclopropyl)-9-(5-(difluoromethyl)-1,3,4-thiadiazol-2-yl)-4-(1-methylpiperidin-4-yl)-9H-pyrimido[4,5-b]indole-7-sulfonamide] | < 100 nM | < 100 nM
CCCN1CCN(c2ncnc3c2c2ccc(S(=O)(=O)NC4(C#N)CC4)cc2n3-c2nnc(C(F)F)s2)C[C@@H]1C [Example 157, (S)-N-(1-cyanocyclopropyl)-9-(5-(difluoromethyl)-1,3,4-thiadiazol-2-yl)-4-(3-methyl-4-propylpiperazin-1-yl)-9H-pyrimido[4,5-b]indole-7-sulfonamide] | < 100 nM | < 100 nM
N#CC1(NS(=O)(=O)c2ccc3c4c(N5CCC6(CCOC6)CC5)ncnc4n(-c4nnc(C(F)F)s4)c3c2)CC1 [Example 183, N-(1-Cyanocyclopropyl)-9-(5-(difluoromethyl)-1,3,4-thiadiazol-2-yl)-4-(2-oxa-8-azaspiro[4.5]decan-8-yl)-9H-pyrimido[4,5-b]indole-7-sulfonamide] | < 100 nM | < 100 nM
N#CC1(NS(=O)(=O)c2ccc3c4c(N5C[C@H]6C[C@@H]5CO6)ncnc4n(-c4nnc(C(F)F)s4)c3c2)CC1 [Example 202, 4-((1R,4R)-2-Oxa-5-azabicyclo[2.2.1]heptan-5-yl)-N-(1-cyanocyclopropyl)-9-(5-(difluoromethyl)-1,3,4-thiadiazol-2-yl)-9H-pyrimido[4,5-b]indole-7-sulfonamide] | < 100 nM | < 100 nM
CC1(C(=O)N2CCN(c3ncnc4c3c3ccc(S(=O)(=O)NC5(C#N)CC5)cc3n4-c3nnc(C(F)F)s3)CC2)CCC1 [Example 4, N-(1-Cyanocyclopropyl)-9-(5-(difluoromethyl)-1,3,4-thiadiazol-2-yl)-4-(4-(1-methylcyclobutane-1-carbonyl)piperazin-1-yl)-9H-pyrimido[4,5-b]indole-7-sulfonamide] | < 100 nM | 100 to 1000 nM
N#CC1(NS(=O)(=O)c2ccc3c4c(N5CC6CCC(C5)O6)ncnc4n(-c4nnc(C(F)F)s4)c3c2)CC1 [Example 201, 4-(8-Oxa-3-azabicyclo[3.2.1]octan-3-yl)-N-(1-cyanocyclopropyl)-9-(5-(difluoromethyl)-1,3,4-thiadiazol-2-yl)-9H-pyrimido[4,5-b]indole-7-sulfonamide] | < 100 nM | < 100 nM
CON(C)C(=O)N1CCC(c2ncnc3c2c2ccc(S(=O)(=O)NC4(C#N)CC4)cc2n3-c2nnc(C(F)F)s2)CC1 [Example 145, 4-(7-(N-(1-Cyanocyclopropyl)sulfamoyl)-9-(5-(difluoromethyl)-1,3,4-thiadiazol-2-yl)-9H-pyrimido[4,5-b]indol-4-yl)-N-methoxy-N-methylpiperidine-1-carboxamide] | < 100 nM | < 100 nM
N#CC1(NS(=O)(=O)c2ccc3c4c(N5CCN(C(=O)C6CCOCC6)CC5)ncnc4n(-c4nnc(C(F)F)s4)c3c2)CC1 [Example 12, N-(1-Cyanocyclopropyl)-9-(5-(difluoromethyl)-1,3,4-thiadiazol-2-yl)-4-(4-(tetrahydro-2H-pyran-4-carbonyl)piperazin-1-yl)-9H-pyrimido[4,5-b]indole-7-sulfonamide] | < 100 nM | < 100 nM
C[C@@H]1CN(c2ncnc3c2c2ccc(S(=O)(=O)NC4(C#N)CC4)cc2n3-c2nnc(C(F)F)s2)C[C@H](C)N1C(=O)CN1CCOCC1 [Example 39, N-(1-Cyanocyclopropyl)-9-(5-(difluoromethyl)-1,3,4-thiadiazol-2-yl)-4-((3R,5S)-3,5-dimethyl-4-(2-morpholinoacetyl)piperazin-1-yl)-9H-pyrimido[4,5-b]indole-7-sulfonamide] | < 100 nM | < 100 nM
CC(C)C(=O)N1CC=C(c2ncnc3c2c2cc(F)c(S(=O)(=O)NC4(C)CC4)cc2n3-c2nnc(C(F)F)s2)CC1 [Example 103, 9-(5-(Difluoromethyl)-1,3,4-thiadiazol-2-yl)-6-fluoro-4-(1-isobutyryl-1,2,3,6-tetrahydropyridin-4-yl)-N-(1-methylcyclopropyl)-9H-pyrimido[4,5-b]indole-7-sulfonamide] | < 100 nM | < 100 nM
